Assay results published in patent US9290688B2, “Alkaline microbial enhanced oil recovery” (GEO FOSSIL FUELS, LLC, priority 2011, dated 2016).

Assays:
[1] = tested on: Rhodococcus rhodochrous ATCC #53968; experiment: Digestion of Red River crude oil with and without beta-oxidation inhibitors; GC of methyl esters of extracted organic acids; assay type: cell-based; details: for Total GC (all peaks integrated by the GC integrator): 0.31 g oil sample; for conv. To umoles FA: approximately 1.0 micromoles per 100 area units; for Cal. AN (calculated acid number): estimated from GC areas
Protocol: (§1) An oil degrading microorganism was used to evaluate the use of chemical inhibitors to slow the utilization of hydrocarbons in petroleum. In a non-limiting example, three different chemical compounds that have been reported to inhibit beta-oxidation were tested in oil and culture medium on a petroleum sample with a strain of Rhodococcus rhodochrous ATCC #53968 in m9 minimal medium. To test the ability of each chemical inhibitor to slow the consumption of fatty acids a culture of bacteria was grown on a crude oil sample for a period of three days with crude petroleum oil as the only carbon source. Four separate flasks were set up, each with an oil to aqueous media ratio of 1 to 5 (10 ml of crude oil to 50 ml of culture medium). Each of the three chemical inhibitors was added to a separate flask and a fourth flask was allowed to digest without the addition of a chemical inhibitor as a control. The flasks were shaken at a room temperature of about 25° C. under aerobic conditions. The progress of the microbial digestion was monitored by the optical density at 600 nm and by visual inspection of the brown oil color in the aqueous phase. Three days after the addition of inhibitors, or a total of six days of incubation with oil, a small sample of oil (0.31 g) was removed. A second sample of the same size was remover after another 6 days. The organic acids were extracted from each oil sample with 1% NaOH in 70% ethanol. The samples were shaken vigorously for one minute. The aqueous extract material was then extracted with hexane to remove any trace of oil. The samples of extracted organic acids were then dried under vacuum and converted to methyl esters with BF3 in methanol.
The mixtures of methyl esters were analyzed by GC (gas chromatography) using a HP (Hewlett Packard) 5890 GC with an Agilent Technologies capillary column, HP-5 (crosslinked 5% PH) ME Siloxane 0.25 micrometer coating with a length of 30 meter and a column ID (internal diameter) of 0.32 mm. Helium was used as a carrier gas. Detection was by a FID detector and integration of peak areas was done with a HP 3396 integrator. The temperature program held an initial temperature of 40° C. for 1.0 minutes then increased at 15 degrees per minute to 280° C., and finally held at a temperature of 280° C. for 5 minutes. To quantify the amount of organic acids extracted by this procedure, a stock solution of 2-bromooctanoate and 2-bromohexadecanoate were added to a sample of undigested Red River crude petroleum oil and then extracted by the same procedure as the bio-digested oil samples. The average area for theses two organic acids was used to estimate the amount of organic acids in micromoles per area unit determined by the GC integrator. The number was calculated to be approximately 1.0 micromoles per 100 area units. The area units for each of the GC peaks are list in Table 2. This number was used to estimate the micromoles organic acids extracted from the oil. This estimate was used to calculate the number of mg of KOH that equaled the number of micromoles of organic acid estimated. This number is listed on the last row in Table 2 as the calculated AN (acid number) for each digestion experiment. These estimated numbers are only based on organic acids that are hydrophobic enough to stay in the oil phase and not move into the aqueous phase. Organic acids measured include the carboxylic acids made by the bacteria and that have been secreted out of the cell and have migrated back to the oil phase. They are also hydrocarbons that are small enough to be extracted into the ethanol aqueous extraction solvent. This number is likely to be less than the total acid number (TAN), a measure often used to evaluate crude petroleum for amenability to alkaline waterflooding.
The earlier eluting peaks are believed to represent methyl ester of lighter hydrocarbon carboxylic acids and the later eluting peaks are believed to represent methyl ester of the heavier organic acids. […]

[2] = tested on: Rhodococcus rhodochrous ATCC #53968; experiment: Growth of bacteria on crude oil with inhibitors, optical density at 600 nm; assay type: cell-based
Protocol: as §1
Digestion with the bacteria increases the total amount of carboxylic acids in all the samples. The digestions with the chemical beta-oxidation inhibitors produce about the same or a little more total methyl ester peaks than the bacterial digestion without an inhibitor. […] The later eluting peaks increase at a faster rate with the inhibitors than without. For example, the 12 day sample with no inhibitor increase from 5.9 to 45.9 area units for peaks up to 13 minutes. The sample with the acrylic acid inhibitor has an increase of from 5.9 to 43.7 area units, which is less than without inhibitor. The later eluting peaks increase from 3.6 to 14.3 without the inhibitor, but with acrylic acid the later peak areas increase to 22.5 area units. […] After 6 days of digestion the optical density had reached 2.23 for the uninhibited digestion as compared to 0.49 for the acrylic acid inhibited sample and 1.84 for the 2-bromooctanoic acid and 2.4 for the 2-bromohexadeconoic acid. After 12 days of digestion the uninhibited sample had reached 4.0 and the acrylic acid had increased to 1.7 and 2.2 and 2.4 for the other two inhibitors. Therefore, by this experimental analysis one can determine which inhibitors increase the carboxylic acid content or the acid number of the oil fastest with the least amount of oil consumption. The oil consumption can be determined by quantitation of remaining oil or by growth of bacteria were oil is the only carbon source. It appears that all the inhibitors helped reduce the utilization of fatty acids and the consumption of oil while producing an increase in acid number.

[3] = 12 days, listed as acrylic acid

C=CC(=O)O [AA, acrylic acid]
GC peak area, retention time 4.5 ([1]; 6 days): 0.242 area units
GC peak area, retention time 5.6 ([1]; 6 days): 0.948 area units
GC peak area, retention time 6.6 ([1]; 6 days): 2.856 area units
GC peak area, retention time 7.6 ([1]; 6 days): 2.724 area units
GC peak area, retention time 8.2 ([1]; 6 days): 0.703 area units
GC peak area, retention time 8.5 ([1]; 6 days): 1.907 area units
GC peak area, retention time 9.4 ([1]; 6 days): 1.575 area units
GC peak area, retention time 10.2 ([1]; 6 days): 1.591 area units
GC peak area, retention time 11 ([1]; 6 days): 2.134 area units
GC peak area, retention time 11.5 ([1]; 6 days): 2.596 area units
GC peak area, retention time 11.7 ([1]; 6 days): 2.416 area units
GC peak area, retention time 12.3 ([1]; 6 days): 1.097 area units
GC peak area, retention time 12.5 ([1]; 6 days): 4.385 area units
GC peak area, retention time 13 ([1]; 6 days): 0.521 area units
GC peak area, retention time 13.1 ([1]; 6 days): 1.769 area units
GC peak area, retention time 13.2 ([1]; 6 days): 3.486 area units
GC peak area, retention time 13.4 ([1]; 6 days): 1.122 area units
GC peak area, retention time 13.6 ([1]; 6 days): 0.783 area units
GC peak area, retention time 13.8 ([1]; 6 days): 2.448 area units
GC peak area, retention time 14 ([1]; 6 days): 0.447 area units
GC peak area, retention time 14.2 ([1]; 6 days): 0.78 area units
SubTotal peak area, later peaks eluting after 13 minutes ([1]; 6 days): 11.356 area units
SubTotal peak area, peaks eluting before 13 minutes ([1]; 6 days): 25.173 area units
Total GC area For 1 ml ([1]; 6 days): 175
Total of all selected peaks ([1]; 6 days): 36.529 area units
Total GC (all peaks integrated by the GC integrator) ([1]; 6 days): 54.17 area units
conv. To umoles FA ([1]; 6 days): 1.75 µmol
Cal. AN (calculated acid number) ([1]; 6 days): 0.098 mg of KOH
GC peak area, retention time 4.2 ([1]; 12 days): 0.58 area units
GC peak area, retention time 4.5 ([1]; 12 days): 1.051 area units
GC peak area, retention time 4.6 ([1]; 12 days): 1.519 area units
GC peak area, retention time 5.6 ([1]; 12 days): 2.754 area units
GC peak area, retention time 6.6 ([1]; 12 days): 7.835 area units
GC peak area, retention time 7.6 ([1]; 12 days): 5.761 area units
GC peak area, retention time 8.2 ([1]; 12 days): 0.558 area units
GC peak area, retention time 8.5 ([1]; 12 days): 3.369 area units
GC peak area, retention time 9.4 ([1]; 12 days): 0.747 area units
GC peak area, retention time 10.2 ([1]; 12 days): 0.588 area units
GC peak area, retention time 11 ([1]; 12 days): 1.736 area units
GC peak area, retention time 11.5 ([1]; 12 days): 2.968 area units
GC peak area, retention time 11.7 ([1]; 12 days): 3.716 area units
GC peak area, retention time 12.3 ([1]; 12 days): 2.722 area units
GC peak area, retention time 12.5 ([1]; 12 days): 6.208 area units
GC peak area, retention time 12.7 ([1]; 12 days): 1.6421 area units
GC peak area, retention time 13 ([1]; 12 days): 1.99 area units
GC peak area, retention time 13.1 ([1]; 12 days): 2.209 area units
GC peak area, retention time 13.2 ([1]; 12 days): 4.801 area units
GC peak area, retention time 13.4 ([1]; 12 days): 3.72 area units
GC peak area, retention time 13.6 ([1]; 12 days): 2.005 area units
GC peak area, retention time 13.8 ([1]; 12 days): 2.512 area units
GC peak area, retention time 14 ([1]; 12 days): 2.548 area units
GC peak area, retention time 14.2 ([1]; 12 days): 2.779 area units
SubTotal peak area, later peaks eluting after 13 minutes ([1]; 12 days): 22.564 area units
SubTotal peak area, peaks eluting before 13 minutes ([1]; 12 days): 43.754 area units
Total GC area For 1 ml ([1]; 12 days): 291
Total of all selected peaks ([1]; 12 days): 66.318 area units
Total GC (all peaks integrated by the GC integrator) ([1]; 12 days): 90.15 area units
conv. To umoles FA ([1]; 12 days): 2.91 µmol
Cal. AN (calculated acid number) ([1]; 12 days): 0.16 mg of KOH
SubTotal peak area, later peaks eluting after 13 minutes [1, 3]: 22.5 area units
SubTotal peak area, peaks eluting before 13 minutes [1, 3]: 43.7 area units
optical density ([2]; after 6 days of digestion, crude oil only carbon source): 0.49
optical density ([2]; after 12 days of digestion): 1.7
